# From ChEMBL document CHEMBL1139972, “Dihydro-[1H]-quinolin-2-ones as retinoid X receptor (RXR) agonists for potential treatment of dyslipidemia” (Bioorg Med Chem Lett, 2007)
# Active and inactive are the calls of the source. The calls are words filed in the database; no cut-off is given here.
# Key:
# [1] = Activity at RXR-LXR heterodimer assessed as induction of ABCA1 mRNA; set-up: species or system Homo sapiens
# [2] = target: T1, Retinoic acid receptor RXR-alpha (Homo sapiens, UniProt P19793); test: Activity at RXRalpha by GAL4DNA cotransfection assay
# T1 sequence (P19793 whole entry): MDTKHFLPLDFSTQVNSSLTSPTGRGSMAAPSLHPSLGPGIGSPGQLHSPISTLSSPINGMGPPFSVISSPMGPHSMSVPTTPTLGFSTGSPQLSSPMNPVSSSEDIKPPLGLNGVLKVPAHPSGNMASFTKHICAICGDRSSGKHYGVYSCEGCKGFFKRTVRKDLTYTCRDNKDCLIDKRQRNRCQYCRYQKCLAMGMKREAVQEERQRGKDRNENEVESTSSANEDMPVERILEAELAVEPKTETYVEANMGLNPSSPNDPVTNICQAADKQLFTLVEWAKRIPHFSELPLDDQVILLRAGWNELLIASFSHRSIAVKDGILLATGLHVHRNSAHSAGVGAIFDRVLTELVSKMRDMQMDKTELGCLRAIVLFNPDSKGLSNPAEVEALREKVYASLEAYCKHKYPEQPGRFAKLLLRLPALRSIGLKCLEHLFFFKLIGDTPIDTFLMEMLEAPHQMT
# [3] = target: T2, Retinoic acid receptor RXR-alpha (Homo sapiens) (UniProt P19793); test: Activity at RXRalpha by GAL4DNA cotransfection assay relative to 5-((3-(1-ethyl-4,4,6-trimethyl-2-oxo-1,2,3,4-tetrahydroquinolin-7-yl)-4-(trifluoromethoxy)phenyl)methylene)thiazolidine-2,4-dione; set-up: concentration or dose not given beside the values
# T2 sequence (whole entry): T1 sequence (P19793 whole entry)
# [4] = species on record: Homo sapiens; test: Activation of RXR-LXR heterodimer assessed as induction of ABCA1 mRNA relative to 5-((3-(1-ethyl-4,4,6-trimethyl-2-oxo-1,2,3,4-tetrahydroquinolin-7-yl)-4-(trifluoromethoxy)phenyl)methylene)thiazolidine-2,4-dione; set-up: concentration or dose not given beside the values
# [5] = Activity at RXR-PPARgamma in human preadipocytes assessed as induction of adipocytes fatty acid binding protein; type: cell-based
# [6] = Clearance in rat at 3 mg/kg, po; type: ADME, organism-based; set-up: dose 3 mg/kg, route oral; conditions: in vivo
# [7] = Oral bioavailability in rat at 3 mg/kg; type: ADME, organism-based; conditions: in vivo
# [8] = Cmax in rat at 3 mg/kg, po; type: ADME, organism-based; set-up: dose 3 mg/kg, route oral; conditions: in vivo
# [9] = AUC in rat at 3 mg/kg, po; type: ADME, organism-based; set-up: dose 3 mg/kg, route oral; conditions: plasma
# [10] = Half life in rat at 3 mg/kg, po; type: ADME, organism-based; set-up: dose 3 mg/kg, route oral; conditions: in vivo
# [11] = Cmax in high cholesterol diet fed Sprague-Dawley rat at 0.3 mg/kg, po after 8 days; type: ADME, organism-based; set-up: dose 0.3 mg/kg, route oral; conditions: in vivo
# [12] = Cmax in high cholesterol diet fed Sprague-Dawley rat at 30 mg/kg, po after 8 days; type: ADME, organism-based; set-up: dose 30 mg/kg, route oral; conditions: in vivo
# [13] = species on record: Mus musculus; test: Decrease in blood glucose level in db/db mouse after 11 days; type: functional, organism-based
# [14] = system: Rattus norvegicus; test: Effect on serum cholesterol level in high cholesterol diet fed Sprague-Dawley rat at 0.3 mg/kg, po after 8 days relative to control; type: functional
# [15] = system: Rattus norvegicus; test: Effect on serum cholesterol level in high cholesterol diet fed Sprague-Dawley rat at 1 mg/kg, po after 8 days relative to control; type: functional
# [16] = system: Rattus norvegicus; test: Effect on serum cholesterol level in high cholesterol diet fed Sprague-Dawley rat at 3 mg/kg, po after 8 days relative to control; type: functional
# [17] = system: Rattus norvegicus; test: Effect on serum cholesterol level in high cholesterol diet fed Sprague-Dawley rat at 10 mg/kg, po after 8 days relative to control; type: functional
# [18] = system: Rattus norvegicus; test: Effect on serum cholesterol level in high cholesterol diet fed Sprague-Dawley rat at 30 mg/kg, po after 8 days relative to control; type: functional
# [19] = system: Rattus norvegicus; test: Effect on serum HDL-C level in high cholesterol diet fed Sprague-Dawley rat at 0.3 mg/kg, po after 8 days relative to control; type: functional
# [20] = system: Rattus norvegicus; test: Effect on serum HDL-C level in high cholesterol diet fed Sprague-Dawley rat at 1 mg/kg, po after 8 days relative to control; type: functional
# [21] = system: Rattus norvegicus; test: Effect on serum HDL-C level in high cholesterol diet fed Sprague-Dawley rat at 3 mg/kg, po after 8 days relative to control; type: functional
# [22] = system: Rattus norvegicus; test: Effect on serum HDL-C level in high cholesterol diet fed Sprague-Dawley rat at 10 mg/kg, po after 8 days relative to control; type: functional
# [23] = system: Rattus norvegicus; test: Effect on serum HDL-C level in high cholesterol diet fed Sprague-Dawley rat at 30 mg/kg, po after 8 days relative to control; type: functional
# [24] = system: Rattus norvegicus; test: Effect on serum LDL-C level in high cholesterol diet fed Sprague-Dawley rat at 0.3 mg/kg, po after 8 days relative to control; type: functional
# [25] = system: Rattus norvegicus; test: Effect on serum LDL-C level in high cholesterol diet fed Sprague-Dawley rat at 1 mg/kg, po after 8 days relative to control; type: functional
# [26] = system: Rattus norvegicus; test: Effect on serum LDL-C level in high cholesterol diet fed Sprague-Dawley rat at 3 mg/kg, po after 8 days relative to control; type: functional
# [27] = system: Rattus norvegicus; test: Effect on serum LDL-C level in high cholesterol diet fed Sprague-Dawley rat at 10 mg/kg, po after 8 days relative to control; type: functional
# [28] = system: Rattus norvegicus; test: Effect on serum LDL-C level in high cholesterol diet fed Sprague-Dawley rat at 30 mg/kg, po after 8 days relative to control; type: functional
# [29] = system: Rattus norvegicus; test: Effect on serum triglyceride level in high cholesterol diet fed Sprague-Dawley rat at 0.3 mg/kg, po after 8 days relative to control; type: functional
# [30] = system: Rattus norvegicus; test: Effect on serum triglyceride level in high cholesterol diet fed Sprague-Dawley rat at 1 mg/kg, po after 8 days relative to control; type: functional
# [31] = system: Rattus norvegicus; test: Effect on serum triglyceride level in high cholesterol diet fed Sprague-Dawley rat at 3 mg/kg, po after 8 days relative to control; type: functional
# [32] = system: Rattus norvegicus; test: Effect on serum triglyceride level in high cholesterol diet fed Sprague-Dawley rat at 10 mg/kg, po after 8 days relative to control; type: functional
# [33] = system: Rattus norvegicus; test: Effect on serum triglyceride level in high cholesterol diet fed Sprague-Dawley rat at 30 mg/kg, po after 8 days relative to control; type: functional
smiles,measurement,setting,value
CCN1C(=O)CC(C)(C)c2cc(C)c(-c3cc([C@H]4C[C@@H]4C(=O)O)ccc3OC(F)(F)F)cc21,EC50,[1],> 3 µM
same,EC50,[2],0.361 µM
same,Activity,[3],92%
CCN1C(=O)CC(C)(C)c2cc(C)c(-c3cc(CCC(=O)O)ccc3OC(F)(F)F)cc21,EC50,[1],0.047 µM
same,Activity,[4],70%
same,EC50,[2],0.0072 µM
same,Activity,[3],79%
same,EC50,[5],1.2 µM
same,CL/F,[6],0.276 L/h/kg
same,bioavailability,[7],71%
same,Cmax,[8],0.678 µg/mL
same,AUC,[9],6.13 µg·h/mL
same,half-life,[10],24 h
same,Cmax,[11],0.0585 µg/mL
same,Cmax,[12],7.51 µg/mL
same,Activity,[13],inactive
same,Activity,[14],343 mg/dL
same,Activity,[15],313 mg/dL
same,Activity,[16],302 mg/dL
same,Activity,[17],228 mg/dL
same,Activity,[18],252 mg/dL
same,Activity,[19],29 mg/dL
same,Activity,[20],30 mg/dL
same,Activity,[21],37 mg/dL
same,Activity,[22],39 mg/dL
same,Activity,[23],42 mg/dL
same,Activity,[24],53 mg/dL
same,Activity,[25],46 mg/dL
same,Activity,[26],46 mg/dL
same,Activity,[27],35 mg/dL
same,Activity,[28],38 mg/dL
same,Activity,[29],320 mg/dL
same,Activity,[30],279 mg/dL
same,Activity,[31],253 mg/dL
same,Activity,[32],270 mg/dL
same,Activity,[33],322 mg/dL
CCN1C(=O)CC(C)(C)c2cc(C)c(-c3cc(C4CC4C(=O)O)ccc3OCC(F)(F)F)cc21 (racemic),EC50,[1],> 3 µM
same,EC50,[2],0.116 µM
same,Activity,[3],87%
Cc1cc2c(cc1-c1cc(CCC(=O)O)ccc1OC(F)(F)F)N(CC(F)(F)F)C(=O)CC2(C)C,EC50,[1],> 3 µM
same,EC50,[2],0.0014 µM
same,Activity,[3],100%
CCN1C(=O)CC(C)(C)c2cc(C)c(-c3cc(OC(C)(C)C(=O)O)ccc3OC(F)(F)F)cc21,EC50,[1],> 3 µM
Cc1cc2c(cc1-c1cc(C3CC3C(=O)O)ccc1OC(F)(F)F)N(C(C)C)C(=O)CC2(C)C (racemic),EC50,[1],> 3 µM
same,EC50,[2],0.005 µM
same,Activity,[3],85%
Cc1cc2c(cc1-c1cc(CCC(=O)O)ccc1OCC(F)(F)F)N(C(C)C)C(=O)CC2(C)C,EC50,[1],0.369 µM
same,Activity,[4],45%
same,EC50,[2],0.0365 µM
same,Activity,[3],79%
COc1ccc(CCC(=O)O)cc1-c1cc2c(cc1C)C(C)(C)CC(=O)N2C(C)C,EC50,[1],> 3 µM
same,EC50,[2],0.361 µM
same,Activity,[3],60%
Cc1cc2c(cc1-c1cc(CCC(=O)O)ccc1OC(F)(F)F)N(C)C(=O)CC2(C)C,EC50,[1],0.053 µM
same,EC50,[2],0.0459 µM
same,Activity,[3],91%
CCN1C(=O)CC(C)(C)c2cc(C)c(-c3cc(/C=C(\C)C(=O)O)ccc3OC(F)(F)F)cc21,EC50,[1],0.1 µM
same,Activity,[4],49%
same,EC50,[2],0.0279 µM
same,Activity,[3],81%
CCN1C(=O)CC(C)(C)c2cc(C)c(-c3cc(C(C)CC(=O)O)ccc3OC(F)(F)F)cc21 (stereo not drawn),EC50,[1],0.347 µM
same,Activity,[4],160%
same,EC50,[2],0.0377 µM
same,Activity,[3],99%
CCN1C(=O)CC(C)(C)c2cc(C)c(-c3cc(CC(C)C(=O)O)ccc3OC(F)(F)F)cc21 (stereo not drawn),EC50,[1],> 3 µM
same,EC50,[2],0.76 µM
same,Activity,[3],85%
CCN1C(=O)CC(C)(C)c2cc(C)c(-c3cc(C#CC(=O)O)ccc3OC(F)(F)F)cc21,EC50,[1],> 3 µM
CCN1C(=O)CC(C)(C)c2cc(C)c(-c3cc(OCC(=O)O)ccc3OC(F)(F)F)cc21,EC50,[1],> 3 µM
CCN1C(=O)CC(C)(C)c2cc(C)c(-c3cc([C@@H]4C[C@H]4C(=O)O)ccc3OC(F)(F)F)cc21,EC50,[1],> 3 µM
same,EC50,[2],0.0023 µM
same,Activity,[3],85%
same,EC50,[5],0.581 µM
CCN1C(=O)CC(C)(C)c2cc(C)c(-c3cc(CCC(=O)O)ccc3OCC(F)(F)F)cc21,EC50,[1],> 3 µM
same,EC50,[2],0.0702 µM
same,Activity,[3],90%
same,EC50,[5],> 3 µM
CCN1C(=O)CC(C)(C)c2cc(C)c(-c3cc(/C=C4\SC(=O)NC4=O)ccc3OC(F)(F)F)cc21,EC50,[1],0.18 µM
same,EC50,[5],0.139 µM
same,Activity,[17],267 mg/dL
same,Activity,[22],47 mg/dL
same,Activity,[27],41 mg/dL
same,Activity,[32],286 mg/dL
Cc1cc2c(cc1-c1cc([C@@H]3C[C@H]3C(=O)O)ccc1OC(F)(F)F)N(C(C)C)C(=O)CC2(C)C,EC50,[1],> 3 µM
same,EC50,[2],0.01 µM
same,Activity,[3],70%
same,EC50,[5],0.266 µM
CCN1C(=O)CC(C)(C)c2cc(C)c(-c3cc(/C=C\C(=O)O)ccc3OC(F)(F)F)cc21,EC50,[1],0.886 µM
same,Activity,[4],75%
same,EC50,[2],0.0391 µM
same,Activity,[3],97%
Cc1cc2c(cc1-c1cc(C3CC3C(=O)O)ccc1OCC(F)(F)F)N(C)C(=O)CC2(C)C (racemic),EC50,[1],> 3 µM
same,EC50,[2],0.144 µM
same,Activity,[3],108%
CCN1C(=O)CC(C)(C)c2cc(C)c(-c3cc(/C=C/C(=O)O)ccc3OC(F)(F)F)cc21,EC50,[1],0.0036 µM
same,Activity,[4],81%
same,Activity,[3],115%
CCN1C(=O)CC(C)(C)c2cc(C)c(-c3cc(C4CC4C(=O)O)ccc3OC(F)(F)F)cc21 (racemic),EC50,[1],0.0174 µM
same,EC50,[2],0.0192 µM
same,Activity,[3],88%
Cc1cc2c(cc1-c1cc(CCC(=O)O)ccc1OC(F)(F)F)N(C(C)C)C(=O)CC2(C)C,EC50,[1],0.001 µM
same,Activity,[4],59%
same,Activity,[3],80%
CCN1C(=O)CC(C)(C)c2cc(C)c(-c3cc(CCCC(=O)O)ccc3OC(F)(F)F)cc21,EC50,[1],> 3 µM
same,EC50,[2],0.527 µM
same,Activity,[3],70%
Cc1cc2c(cc1-c1cc([C@H]3C[C@@H]3C(=O)O)ccc1OC(F)(F)F)N(C(C)C)C(=O)CC2(C)C,EC50,[1],> 3 µM
same,EC50,[2],0.198 µM
same,Activity,[3],50%
COc1ccc(C2CC2C(=O)O)cc1-c1cc2c(cc1C)C(C)(C)CC(=O)N2C(C)C (racemic),EC50,[1],1.52 µM
same,EC50,[2],0.208 µM
same,Activity,[3],50%
CCN1C(=O)CC(C)(C)c2cc(C)c(-c3cc(/C(C)=C/C(=O)O)ccc3OC(F)(F)F)cc21,EC50,[2],> 10 µM
